Reference: patent US20200339604A1, “PYRAZOLOPYRIMIDINE COMPOUNDS AS JAK INHIBITORS” (Genentech, Inc., priority 2018, published 2020)
Like-named read-outs stand apart in the source and are kept apart here.

What was measured:
[1] = biological target: T1, isolated recombinant JAK1 kinase domain (Homo sapiens, UniProt P23458); experiment: JAK enzyme assay, JAK1 kinase domain (Caliper LabChip); assay type: biochemical; conditions: 1.5 nM JAK1, ATP 25 μM, Morrison tight binding model
T1 construct: isolated recombinant JAK1 and JAK2 kinase domain
Description: (§1) JAK Enzyme Assays were Carried Out as Follows:
(§2) The activity of the isolated recombinant JAK1 and JAK2 kinase domain was measured by monitoring phosphorylation of a peptide derived from JAK3 ([…] fluorescently labeled on the N-terminus with 5-carboxyfluorescein) using the Caliper LabChip® technology (Caliper Life Sciences, Hopkinton, Mass.). To determine inhibition constants (K), compounds were diluted serially in DMSO and added to 50 μL kinase reactions containing purified enzyme (1.5 nM JAK1, or 0.2 nM JAK2), 100 mM HEPES buffer (pH 7.2), 0.015% Brij-35, 1.5 μM peptide substrate, ATP (25 μM), 10 mM MgCl2, 4 mM DTT at a final DMSO concentration of 2%.
(§3) Reactions were incubated at 22° C. in 384-well polypropylene microtiter plates for 30 minutes and then stopped by addition of 25 µL of an EDTA containing solution (100 mM HEPES buffer (pH 7.2), 0.015% Brij-35, 150 mM EDTA), resulting in a final EDTA concentration of 50 mM. After termination of the kinase reaction, the proportion of phosphorylated product was determined as a fraction of total peptide substrate using the Caliper LabChip® 3000 according to the manufacturer's specifications. K values were then determined using the Morrison tight binding model (Morrison, J. F., Biochim. Biophys. Acta. 185:269-296 (1969); William, J. W. and Morrison, J. F., Meth. Enzymol., 63:437-467 (1979)) modified for ATP-competitive inhibition [Ki=Ki, app/(1+[ATP]/Km,app)].

[2] = biological target: T2, isolated recombinant JAK2 kinase domain (Homo sapiens, UniProt O60674); experiment: JAK enzyme assay, JAK2 kinase domain (Caliper LabChip); assay type: biochemical; conditions: 0.2 nM JAK2, ATP 25 μM, Morrison tight binding model
T2 construct: isolated recombinant JAK1 and JAK2 kinase domain
Description: as §1, §2, §3

[3] = system: JAK1-dependent STAT6 phosphorylation downstream of IL-13 stimulation, BEAS-2B human bronchial epithelial cells; experiment: JAK1 pathway assay in cell lines: IL-13 stimulated STAT6 phosphorylation in BEAS-2B cells (MSD); assay type: cell-based; conditions: IL-13 stimulation 15 min at EC90, read-out: IL-13 p-STAT6 BEAS-2B IC50
Description: JAK1 Pathway Assay in Cell Lines was Carried Out as Follows:
Inhibitor potency (EC50) was determined in cell-based assays designed to measure JAK1 dependent STAT phosphorylation. As noted above, inhibition of IL-4, IL-13, and IL-9 signaling by blocking the Jak/Stat signaling pathway can alleviate asthmatic symptoms in pre-clinical lung inflammation models (Mathew et al., 2001, J Exp Med 193(9): 1087-1096; Kudlacz et. al., 2008, Eur J. Pharmacol 582(1-3): 154-161).
In one assay approach, TF-1 human erythroleukemia cells obtained from the American Type Culture Collection (ATCC; Manassas, Va.) were used to measure JAK1-dependent STAT6 phosphorylation downstream of IL-13 stimulation. Prior to use in the assays, TF-1 cells were starved of GM-CSF overnight in OptiMEM medium (Life Technologies, Grand Island, N.Y.) supplemented with 0.5% charcoal/dextran stripped fetal bovine serum (FBS), 0.1 mM non-essential amino acids (NEAA), and 1 mM sodium pyruvate. The assays were run in 384-well plates in serum-free OptiMEM medium using 300,000 cells per well. In a second assay approach, BEAS-2B human bronchial epithelial cells obtained from ATCC were plated at 100,000 cells per well of a 96-well plate one day prior to the experiment. The BEAS-2B assay was run in complete growth medium (bronchial epithelial basal medium plus bulletkit; Lonza; Basel, Switzerland).
Test compounds were serially diluted 1:2 in DMSO and then diluted 1:50 in medium just before use. Diluted compounds were added to the cells, for a final DMSO concentration of […], and incubated for 30 m (for the TF-1 assay) or […] (for the BEAS-2B assay) at 37° C. Then, cells were stimulated with human recombinant cytokine at their respective EC90 concentrations, as previously determined for each individual lot. Cells were stimulated with IL-13 (R&D Systems, Minneapolis, Minn.) for 15 min at 37° C. The TF-1 cell reactions were stopped by the direct addition of 10× lysis buffer (Cell Signaling Technologies, Danvers, Mass.), whereas the BEAS-2B cell incubations were halted by the removal of medium and addition of 1× lysis buffer. The resultant samples were frozen in the plates at −80° C. Compound mediated inhibition of STAT6 phosphorylation was measured in the cell lysates using MesoScale Discovery (MSD) technology (Gaithersburg, Md.).

T2 sequence (O60674 849-1124 limits assumed): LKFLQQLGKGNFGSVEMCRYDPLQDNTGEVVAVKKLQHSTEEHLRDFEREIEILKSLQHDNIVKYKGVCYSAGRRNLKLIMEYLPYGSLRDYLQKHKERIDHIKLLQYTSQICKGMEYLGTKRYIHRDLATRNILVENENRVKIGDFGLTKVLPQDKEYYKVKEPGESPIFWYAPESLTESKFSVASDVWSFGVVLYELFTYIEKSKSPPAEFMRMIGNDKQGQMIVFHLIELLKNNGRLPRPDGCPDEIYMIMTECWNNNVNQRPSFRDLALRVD
T1 sequence (P23458 875-1153 limits assumed): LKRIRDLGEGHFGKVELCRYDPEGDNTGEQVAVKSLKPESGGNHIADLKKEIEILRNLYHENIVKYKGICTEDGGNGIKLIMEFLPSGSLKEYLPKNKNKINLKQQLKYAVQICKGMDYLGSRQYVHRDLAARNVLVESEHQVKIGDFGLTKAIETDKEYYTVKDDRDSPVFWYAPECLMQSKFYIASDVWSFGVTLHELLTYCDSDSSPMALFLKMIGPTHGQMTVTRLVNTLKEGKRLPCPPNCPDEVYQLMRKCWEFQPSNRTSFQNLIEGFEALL

| SMILES | Ki [1] [nM] | Ki [2] [nM] | IC50 ([3]; Homo sapiens, BEAS-2B, […]) [nM] | IC50 [3] [nM] |
| --- | --- | --- | --- | --- |
| O=C(Nc1cn(C2CCCCC2=O)nc1-c1cc(Cl)ccc1OC(F)F)c1cnn2cccnc12 (racemic) [Example 1, N-[3-[5-chloro-2-(difluoromethoxy)phenyl]-1-(2-oxocyclohexyl)pyrazol-4-yl] pyrazolo [1,5-a] pyrimidine-3-carboxamide] | 1.1 | 1.4 | 33 | – |
| CN1CCC(n2cc(NC(=O)c3cnn4cccnc34)c(-c3cc(Cl)c(C#N)cc3OC(F)F)n2)C1=O (racemic) [Example 22, N-[3-[5-chloro-4-cyano-2-(difluoromethoxy)phenyl]-1-(1-methyl-2-oxo-pyrrolidin-3-yl)pyrazol-4-yl]pyrazolo[1,5-a]pyrimidine-3-carboxamide] | 2.5 | 4 | 98 | – |
| O=C(Nc1cn(C2CCOC2=O)nc1-c1cc(Cl)ccc1OC(F)F)c1cnn2cccnc12 (racemic) [Example 25, N-[3-[5-chloro-2-(difluoromethoxy)phenyl]-1-(2-oxotetrahydrofuran-3-yl)pyrazol-4-yl]pyrazolo[1,5-a]pyrimidine-3-carboxamide; formic acid] | 0.37 | 0.21 | 19 | – |
| O=C(Nc1cn([C@H]2CCNC2=O)nc1-c1cc(Cl)ccc1OC(F)F)c1cnn2cccnc12 (single isomer, unassigned) [Example 4, N-[3-[5-chloro-2-(difluoromethoxy)phenyl]-1-(2-oxopyrrolidin-3-yl)pyrazol-4-yl]pyrazolo[1,5-a]pyrimidine-3-carboxamide] | 0.78 | 0.4 | 24 | – |
| O=C(Nc1cn(C2CCNC2=O)nc1-c1cc(Cl)ccc1OC(F)F)c1cnn2cccnc12 (single isomer, unassigned) [Example 5, N-[3-[5-chloro-2-(difluoromethoxy)phenyl]-1-(2-oxopyrrolidin-3-yl)pyrazol-4-yl]pyrazolo[1,5-a]pyrimidine-3-carboxamide] | 1.8 | 0.48 | 40 | – |
| CSc1ccc(OC(F)F)c(-c2nn(C3CCN(C)C3=O)cc2NC(=O)c2cnn3cccnc23)c1 (single isomer, unassigned) [Example 6, N-[3-[2-(difluoromethoxy)-5-methylsulfanyl-phenyl]-1-(1-methyl-2-oxo-pyrrolidin-3-yl)pyrazol-4-yl]pyrazolo[1,5-a]pyrimidine-3-carboxamide] | 0.18 | 0.24 | – | 11 |
| CSc1ccc(OC(F)F)c(-c2nn(C3CCN(C)C3=O)cc2NC(=O)c2cnn3cccnc23)c1 (single isomer, unassigned) [Example 7, N-[3-[2-(difluoromethoxy)-5-methylsulfanyl-phenyl]-1-(1-methyl-2-oxo-pyrrolidin-3-yl)pyrazol-4-yl]pyrazolo[1,5-a]pyrimidine-3-carboxamide] | 0.84 | 0.31 | – | 42 |
| CN1CCC(n2cc(NC(=O)c3cnn4cccnc34)c(-c3cc(OC(F)F)ccc3OC(F)F)n2)C1=O (single isomer, unassigned) [Example 8, N-[3-[2,5-bis(difluoromethoxy)phenyl]-1-(1-methyl-2-oxo-pyrrolidin-3-yl)pyrazol-4-yl]pyrazolo[1,5-a]pyrimidine-3-carboxamide] | 0.3 | 0.84 | – | 20 |
| CN1CCC(n2cc(NC(=O)c3cnn4cccnc34)c(-c3cc(OC(F)F)ccc3OC(F)F)n2)C1=O (single isomer, unassigned) [Example 9, N-[3-[2,5-bis(difluoromethoxy)phenyl]-1-(1-methyl-2-oxo-pyrrolidin-3-yl)pyrazol-4-yl]pyrazolo[1,5-a]pyrimidine-3-carboxamide] | 2.1 | 1.1 | – | 67 |
| CN1CCC(n2cc(NC(=O)c3cnn4cccnc34)c(-c3cc4c(cc3OC(F)F)NCCO4)n2)C1=O (single isomer, unassigned) [Example 10, N-[3-[6-(difluoromethoxy)-3,4-dihydro-2H-1,4-benzoxazin-7-yl]-1-(1-methyl-2-oxo-pyrrolidin-3-yl)pyrazol-4-yl]pyrazolo[1,5-a]pyrimidine-3-carboxamide] | 0.37 | 0.58 | 190 | – |
| CN1CCC(n2cc(NC(=O)c3cnn4cccnc34)c(-c3cc4c(cc3OC(F)F)NCCS4)n2)C1=O (single isomer, unassigned) [Example 12] | 0.15 | 0.11 | – | – |
| O=C(Nc1cn(C2CCN(CCN3CCOCC3)C2=O)nc1-c1cc(Cl)ccc1OC(F)F)c1cnn2cccnc12 (single isomer, unassigned) [Example 15, N-[3-[5-chloro-2-(difluoromethoxy)phenyl]-1-[1-(2-morpholinoethyl)-2-oxo-pyrrolidin-3-yl]pyrazol-4-yl]pyrazolo[1,5-a]pyrimidine-3-carboxamide] | 4.4 | 1 | – | – |

Further lines, with some results ahead:

| Ki [1] [nM] | Ki [2] [nM] | SMILES | IC50 ([3]; Homo sapiens, BEAS-2B, […]) [nM] | IC50 [3] [nM] |
| --- | --- | --- | --- | --- |
| 0.79 | 0.45 | O=C(Nc1cn(C2CCCC2=O)nc1-c1cc(Cl)ccc1OC(F)F)c1cnn2cccnc12 (racemic) [Example 35, N-[3-[5-chloro-2-(difluoromethoxy)phenyl]-1-(2-oxocyclopentyl)pyrazol-4-yl]pyrazolo[1,5-a]pyrimidine-3-carboxamide] | 16 | – |
| 0.17 | 0.095 | O=C(Nc1cn(C2CCOC2=O)nc1-c1cc2c(cc1OC(F)F)NCCS2)c1cnn2cccnc12 (single isomer, unassigned) [Example 33, N-[3-[6-(difluoromethoxy)-3,4-dihydro-2H-1,4-benzothiazin-7-yl]-1-(2-oxotetrahydrofuran-3-yl)pyrazol-4-yl]pyrazolo[1,5-a]pyrimidine-3-carboxamide] | – | – |
| 0.092 | 0.056 | O=C(Nc1cn(C2CCOC2=O)nc1-c1cc2c(cc1OC(F)F)NCCS2)c1cnn2cccnc12 (single isomer, unassigned) [Example 34, N-[3-[6-(difluoromethoxy)-3,4-dihydro-2H-1,4-benzothiazin-7-yl]-1-(2-oxotetrahydrofuran-3-yl)pyrazol-4-yl]pyrazolo[1,5-a]pyrimidine-3-carboxamide] | – | – |
| 0.6 | 0.42 | O=C(Nc1cn(C2CCOC2=O)nc1-c1cc2c(cc1OC(F)F)NCCO2)c1cnn2cccnc12 (single isomer, unassigned) [Example 38, N-[3-[6-(difluoromethoxy)-3,4-dihydro-2H-1,4-benzoxazin-7-yl]-1-(2-oxotetrahydrofuran-3-yl)pyrazol-4-yl]pyrazolo[1,5-a]pyrimidine-3-carboxamide] | – | – |
| 0.32 | 0.29 | O=C(Nc1cn(C2CCOC2=O)nc1-c1cc2c(cc1OC(F)F)NCCO2)c1cnn2cccnc12 (single isomer, unassigned) [Example 39, N-[3-[6-(difluoromethoxy)-3,4-dihydro-2H-1,4-benzoxazin-7-yl]-1-(2-oxotetrahydrofuran-3-yl)pyrazol-4-yl]pyrazolo[1,5-a]pyrimidine-3-carboxamide; formic acid] | – | – |
